As a reminder, the Ki is the equilibrium dissociation constant of an inhibitor or competing ligand from its target.

Assay [1] has as its target T1, human norepinephrine transporter (Homo sapiens, UniProt P23975).
T1 construct: expressed in transfected cells; host or cells: HEK-293
The assay is described as follows: hNET Receptor Binding ([125I]-RTI-55 displacement, HEK-293 membranes). On the procedure: Cell pastes of HEK-293 cells transfected with a human norepinephrine transporter cDNA were prepared. The cell pastes were resuspended in 400 to 700 mL of Krebs-HEPES assay buffer (25 mM HEPES, 122 mM NaCl, 3 mM KCl, 1.2 mM MgSO4, 1.3 mM CaCl2, and 11 mM glucose, pH 7.4) with a Polytron homogenizer at setting 7 for 30 seconds. Aliquots of membranes (5 mg/mL protein) were stored in liquid nitrogen until used.
The binding assay was set up in Beckman deep-well polypropylene plates with a total volume of 250 μL containing: compound of one of the Examples (10^−5M to 10^−12M), cell membranes, and 50 pM [^125I]-RTI-55 (Perkin Elmer, NEX-272; specific activity 2200 Ci/mmol). The reaction was incubated by gentle agitation for 90 minutes at room temperature and was terminated by filtration through Whatman GF/C filter plates using a Brandel 96-well plate harvester. Scintillation fluid (100 μL) was added to each well, and bound [^125I]-RTI-55 was determined using a Wallac Trilux Beta Plate Counter. Test compounds were run in duplicate, and specific binding was defined as the difference between binding in the presence and absence of 10 μM desipramine.
(§1) Excel and GraphPad Prism software were used for data calculation and analysis. IC50 values were converted to Ki values using the Cheng-Prusoff equation.

The target of assay [2] is T2, human serotonin transporter (Homo sapiens, UniProt P31645).
T2 construct: expressed in transfected cells; host or cells: HEK-293
Put plainly: hSERT Receptor Binding ([125I]-RTI-55 displacement, HEK-293 membranes). Here is the method: Cell pastes of HEK-293 cells transfected with a human serotonin transporter cDNA were prepared. The cell pastes were resuspended in 400 to 700 mL of Krebs-HEPES assay buffer (25 mM HEPES, 122 mM NaCl, 3 mM KCl, 1.2 mM MgSO4, 1.3 mM CaCl2, and 11 mM glucose, pH 7.4) with a Polytron homogenizer at Setting 7 for 30 seconds. Aliquots of membranes (about 2.5 mg/mL protein) were stored in liquid nitrogen until used.
Assays were set up in FlashPlates pre-coated with 0.1 % PEI in a total volume of 250 μL containing: compound of one of the Examples (10^−5M to 10^−12M), cell membanes, and 50 pM [^125l]-RTI-55 (Perkin Elmer, NEX-272; specific activity 2200 Ci/mmol). The reaction was incubated and gently agitated for 90 minutes at room temperature, and terminated by removal of assay volume. Plates were covered, and bound [^125I]-RTI-55 was determined using a Wallac Trilux Beta Plate Counter. Test compounds were run in duplicate, and specific binding was defined as the difference between binding in the presence and absence of 10 μM citalopram.
as §1

[3] abbreviates: hNET, HEK-293 cell membranes, 50 pM [125I]-RTI-55, Ki from IC50 by Cheng-Prusoff, read-out: NET Ki.
The mark [4] stands for this setting: hSERT, HEK-293 cell membranes, 50 pM [125I]-RTI-55, Ki from IC50 by Cheng-Prusoff, read-out: SERT Ki.

Read-outs that look alike come from different tables or passages of the source.

T1 sequence (P23975 whole entry): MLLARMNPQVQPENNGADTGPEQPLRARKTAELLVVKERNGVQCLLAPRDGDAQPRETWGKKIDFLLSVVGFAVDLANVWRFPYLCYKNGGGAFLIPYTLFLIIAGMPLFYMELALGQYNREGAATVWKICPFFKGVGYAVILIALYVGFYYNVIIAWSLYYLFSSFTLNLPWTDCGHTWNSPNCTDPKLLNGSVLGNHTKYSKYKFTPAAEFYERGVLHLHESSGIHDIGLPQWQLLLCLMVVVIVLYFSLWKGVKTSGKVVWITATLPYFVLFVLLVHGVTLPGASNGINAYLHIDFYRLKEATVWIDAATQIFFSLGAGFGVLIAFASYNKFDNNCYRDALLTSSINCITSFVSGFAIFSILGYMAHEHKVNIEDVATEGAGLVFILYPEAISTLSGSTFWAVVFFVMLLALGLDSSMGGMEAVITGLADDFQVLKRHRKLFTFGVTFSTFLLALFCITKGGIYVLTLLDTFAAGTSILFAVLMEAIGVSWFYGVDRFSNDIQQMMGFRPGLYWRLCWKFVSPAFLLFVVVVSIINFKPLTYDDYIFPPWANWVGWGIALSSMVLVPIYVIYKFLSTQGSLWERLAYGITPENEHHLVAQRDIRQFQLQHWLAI
T2 sequence (P31645 whole entry): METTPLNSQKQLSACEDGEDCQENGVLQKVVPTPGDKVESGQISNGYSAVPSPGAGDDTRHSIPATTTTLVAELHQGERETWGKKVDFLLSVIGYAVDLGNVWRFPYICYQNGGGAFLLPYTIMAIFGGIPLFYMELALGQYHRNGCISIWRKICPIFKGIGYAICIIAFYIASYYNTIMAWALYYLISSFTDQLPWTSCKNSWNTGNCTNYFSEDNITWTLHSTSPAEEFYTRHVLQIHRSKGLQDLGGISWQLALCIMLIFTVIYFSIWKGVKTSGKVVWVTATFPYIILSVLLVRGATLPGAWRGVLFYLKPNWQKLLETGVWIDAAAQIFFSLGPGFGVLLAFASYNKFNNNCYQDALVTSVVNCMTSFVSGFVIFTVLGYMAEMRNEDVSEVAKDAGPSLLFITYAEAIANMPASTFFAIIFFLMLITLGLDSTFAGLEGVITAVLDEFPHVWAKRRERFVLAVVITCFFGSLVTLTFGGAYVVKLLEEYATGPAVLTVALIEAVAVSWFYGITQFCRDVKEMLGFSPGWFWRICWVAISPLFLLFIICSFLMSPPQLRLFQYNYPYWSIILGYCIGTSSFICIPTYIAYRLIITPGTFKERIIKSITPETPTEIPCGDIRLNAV

`CCOc1ncccc1OC[C@@H]1CNCC[C@H]1c1ccc(F)cc1` (racemic) [Example 58, (±)-trans-2-Ethoxy-3-[4-(4-fluoro-phenyl)-piperidin-3-ylmethoxy]-pyridine]: the Ki in assay [1] amounted to 6.25 nM; in assay [2], 5.97 nM.
On to `CCOc1ncccc1OC[C@@H]1CNCC[C@H]1c1cccc(F)c1` (racemic) [Example 59, (±)-trans-2-Ethoxy-3-[4-(3-fluoro-phenyl)-piperidin-3-ylmethoxy]-pyridine], for which the values for the Ki in assay [1] (setting [3]) and in assay [2] (setting [4]) were 4.38 nM and 10.7 nM, respectively.
With `CCCCc1ncccc1OC[C@@H]1CNCC[C@H]1c1ccccc1` (racemic) [Example 61, (±)-trans-2-Butyl-3-(4-phenyl-piperidin-3-ylmethoxy)-pyridine], the Ki in assay [1] (setting [3]) amounted to 7.48 nM; in assay [2] (setting [4]) it was 23.8 nM.
For the compound `CC(C)Cc1ncccc1OC[C@@H]1CNCC[C@H]1c1ccccc1` (racemic) [Example 62, (±)-trans-2-lsobutyl-3-(4-phenyl-piperidin-3-ylmethoxy)-pyridine], the Ki in assay [1] (setting [3]) turned out to be 46.6 nM; in assay [2] (setting [4]) it was 59.2 nM.
For the compound `c1ccc(-c2ccccc2OC[C@@H]2CNCC[C@H]2c2ccccc2)cc1` (relative stereo) [Example 47, trans-3-(Biphenyl-2-yloxymethyl)-4-phenyl-piperidine], the figures for the Ki in assay [1] (setting [3]) and in assay [2] (setting [4]) were 51.5 nM and 1050 nM, respectively.
As to `CCOc1ccccc1OC[C@@H]1CNCC[C@H]1c1ccccc1` (relative stereo) [Example 48, trans-3-(2-Ethoxy-phenoxymethyl)-4-phenyl-piperidine], the Ki in assay [1] (setting [3]) stood at 2.1 nM.
As for `CC(C)c1ccccc1OC[C@@H]1CNCC[C@H]1c1ccccc1` (relative stereo) [Example 49, trans-3-(2-lsopropyl-phenoxymethyl)-4-phenyl-piperidine], the Ki amounted to 19.5 nM in assay [1] (setting [3]) and 83.5 nM in assay [2] (setting [4]).
For `CCCc1ccccc1OC[C@@H]1CNCC[C@H]1c1ccccc1` (relative stereo) [Example 50, trans-4-Phenyl-3-(2-propyl-phenoxymethyl)-piperidine] the same measures were 16 nM and 33 nM.
For `c1ccc([C@@H]2CCNC[C@H]2COc2ccccc2C2CCCCC2)cc1` (relative stereo) [Example 51, trans-3-(2-Cyclohexyl-phenoxymethyl)-4-phenyl-piperidine] the same measures were 75 nM and 174 nM.
The matching figures for `CCOc1ccccc1OC[C@@H]1CNCC[C@@H]1c1ccccc1` (relative stereo) [Example 52, cis-3-(2-Ethoxy-phenoxymethyl)-4-phenyl-piperidine]: 35 nM and 96 nM.
For `CCCc1ccccc1OC[C@@H]1CNCC[C@@H]1c1ccccc1` (relative stereo) [Example 53, cis-4-Phenyl-3-(2-propyl-phenoxymethyl)-piperidine], the figures for the Ki in assay [1] (setting [3]) and in assay [2] (setting [4]) were 138 nM and 267 nM, respectively.
The matching figures for `CC(C)c1ccccc1OC[C@@H]1CNCC[C@@H]1c1ccccc1` (relative stereo) [Example 54, cis-3-(2-lsopropyl-phenoxymethyl)-4-phenyl-piperidine]: 36.5 nM and 208 nM.
As to `c1ccc(-c2ccccc2OC[C@@H]2CNCC[C@@H]2c2ccccc2)cc1` (relative stereo) [Example 55, cis-3-(Biphenyl-2-yloxymethyl)-4-phenyl-piperidine], the Ki in assay [1] (setting [3]) is 215 nM; in assay [2] (setting [4]) it was 1050 nM.
As to `c1ccc([C@H]2CCNC[C@H]2COc2ccccc2C2CCCCC2)cc1` (relative stereo) [Example 56, cis-3-(2-Cyclohexyl-phenoxymethyl)-4-phenyl-piperidine], the Ki in assay [1] (setting [3]) worked out at 317 nM; in assay [2] (setting [4]) it was 542 nM.
For `CCOc1ccccc1OC[C@@H]1CNCC[C@H]1c1ccccc1` [Example 18, (3S,4R)-3-(2-Ethoxy-phenoxymethyl)-4-phenyl-piperidine], the Ki in assay [1] (setting [3]) stood at 1.75 nM.

For the origin of these results see patent US20070142389A1, “PIPERIDINE DERIVATIVES” (PFIZER INC., priority 2005, published 2007).
